Test results published in patent US8778961B2, “O-methylated rapamycin derivatives for alleviation and inhibition of lymphoproliferative disorders” (The Trustees of the University of Pennsylvania, priority 2000, dated 2014).
Where “and” joins values, the source holds several entries; their conditions need not be identical. Equal values may be shown once.

Legend:
[1] = test system: A1 cell line tumors; assay: treatment of established xenotransplanted tumors in SCID mice; assay type: in vivo
Experimental: (§1) Establishment and passaging of the xenotransplanted tumors was performed as described (Douglas et al., 1998, Cytometry 32:57-65; Kawamata et al., 1998, Blood 91:561-569; Pepper et al., 1998, Leuk. Res. 22:439-444). To deplete macrophages and NK cells and to enhance tumor engraftment, SCID mice were injected intraperitoneally with 30-45 milligrams per kilogram of etoposide (Bedford Laboratories, Bedford, Ohio) 4 days prior to implantation of the human EBV^+ B-cell lines (Visonneau et al., 1998, Am. J. Path. 152:1299-1311). Ten million cells of each line employed (see results) were inoculated into mice either intraperitoneally or subcutaneously in 200 microliters of Dulbecco's Phosphate Buffered Saline (DPBS; BioWhittaker, Walkersville, Md.). Ascites or palpable subcutaneous tumors developed 3-5 weeks after cell injection.
(§2) Tumor treatment and growth inhibition experiments were performed using fragments of the established subcutaneous tumors (Pasqualucci et al., 1995, Blood 85:2139-2146, Visonneau et al., 1998, Am. J. Path. 152:1299-1311). For this purpose, mice were anesthetized with KETALAR™ (ketamine, Parke-Davis, Morris Plains, N.J.) by intraperitoneal injection of 100 milligrams per kilogram. Next, the primary tumor was aseptically removed and freed from necrotic, fatty and connective tissue and divided into small pieces of roughly equal size and 3-4 pieces per mouse were injected subcutaneously. Treatment of established tumors with SDZ RAD was started when tumors reached 5 millimeters diameter. In growth inhibition experiments, the treatment was initiated 3 days prior to the tumor implantation. Tumor volume in all experiments was determined from the equation: volume=0.4ab^2, where a and b designate respectively long and short diameter of the tumor. The transplanted mice were monitored for tumor growth for a period of up to 2 months. Five milligrams per kilogram of SDZ RAD was administered once a day by gavage as described (Schuurman et al., 1997, Transplantation 64:32-5; Schuler et al. 1997, Transplantation 64:36-42).
(§3) Mice were sacrificed by exposure to FORANE™ (isoflurane, Ohmeda, Liberty Place, N.J.) on day 29 in the drug toxicity study, on day 40-55 in the tumor growth inhibition study or when tumors achieved approximately 2 centimeter diameter, or when ulceration of the skin, signs of severe respiratory distress, weakness, or lethargy appeared. Complete autopsy was performed on all mice at the end of the study regardless of their appearance. Tumor and internal organs (spleen, liver, lung, heart, kidney, small and large intestines, femoral bone for bone marrow) were fixed in 10% (v/v) formalin, embedded in paraffin, cut into […] sections, transferred to glass slides, and stained with hematoxylin and eosin. Representative tumor fragments were stained immunohistochemically by standard streptavidin-biotin complex technique using commercially available reagents (Research Genetics, Huntsville, Ala.), antibodies: anti-CD20 (L-26) and LMP-1 (both from DAKO, Carpinteria, Calif.) and Ki67 (mib1; Immunotech, Westbrook, Me.). EBV-encoded RNA (EBER-1), and detected using commercially available reagents.
(§4) In order to determine the in vivo effect of SDZ RAD on PTLD-like cells, 15A, 20A, and A1 cell line tumors were implanted into 7-15 SCID mice per cell line. Treatment was initiated once the tumors reached 5 millimeters diameter, which corresponds to a volume of 50 cubic millimeters. SDZ RAD was administered by daily gavage at 5 milligrams per kilogram, which represents a non-toxic and effective immunosuppressive dose (Schuurman et al., 1997, Transplantation 64:32-5; Schuler et al. 1997, Transplantation 64:36-42).

[2] = test system: 20A tumors; assay: as above; assay type: in vivo
Experimental: as §1, §2, §3, §4

[3] = test system: 15A tumors; assay: as above; assay type: in vivo; settings: 5 milligrams per kilogram daily gavage
Experimental: as §1, §2, §3, §4

[4] = test system: HTLV-I (+) T-cell lines ATL-2, C10MJ2, HUT102B; settings: Zhang et al., 1999, Leukemia Res. 23:373-384; cited from earlier work

## CO[C@H]1C[C@@H]2CC[C@@H](C)[C@@](O)(O2)C(=O)C(=O)N2CCCC[C@H]2C(=O)O[C@H]([C@H](C)C[C@@H]2CC[C@@H](OCCO)[C@H](OC)C2)CC(=O)[C@H](C)/C=C(\C)[C@@H](O)[C@@H](OC)C(=O)[C@H](C)C[C@H](C)/C=C/C=C/C=C/1C [SDZ RAD, 40-O-(2-hydroxy)ethyl-rapamycin]
[1]; after day 21
  mice with steady regression on further treatment: all 8
[1]; day 21
  tumors showing any evidence of growth: 0/8
[1]; day 21, 5 milligrams per kilogram daily gavage
  median volume of the treated tumors: 50 cubic millimeters
[1]; day 53
  mean tumor volume: < 5 cubic millimeters
[1]; day 53, 8 treated mice
  mice in which no lymphoma could be detected (total tumor eradication): 4 and 4 out of 8
  mice with microscopically-confirmed residual lymphoma: 4
[2]; 5 milligrams per kilogram daily gavage
  treated mice with significant regression in the tumor volume: 6 out of 10
[2]; day 19, 5 milligrams per kilogram daily gavage, equal to initial tumor size
  average treated tumor volume: 50 cubic millimeters
[2]; day 53, subset of mice with regression
  median tumor volume: < 5 cubic millimeters
[3]; started at 5 millimeters tumor diameter
  effect on tumor growth: marked drug-induced delay of the tumor growth but no absolute tumor growth inhibition or regression
[3]; day 21, treated mice
  median tumor volume: approximately 240 cubic millimeters
[3]; day 38, treated mice
  tumor volume: around 1000 cubic millimeters
[4]
  response of cell lines to the drug: non-responsive
